Data set [1] in a line: Binding affinity to calcium saturated His tagged cNTnC (1 to 90 residues)- cTnI (136 to 163 residues) C35S mutant chimeric protein (unknown origin) assessed as dissociation constant by flourescence spectroscopy analysis. More on the design: species or system Homo sapiens.
The species entered for data set [2] is Bos taurus. The experiment in a line: Inhibition of actomyosin ATPase activity in bovine cardiac myofibrils assessed as reduction in inorganic phosphate release using ATP as substrate preincubated for 30 mins in presence of pCa 6 followed by substrate addition by malachite green based assay.
Data set [3] is filed under the species Homo sapiens. The experiment in a line: Binding affinity to BME-bound [15N]-labelled cNTnC (1 to 90 residues)- cTnI (136 to 163 residues) C35S mutant chimeric protein (unknown origin) expressed in Escherichia coli BL21 (DE3) up to 60 uM by 2D 1H, 15N HSQC NMR spectroscopy analysis. Conditions: dose microM <=60.
The nature of data set [4]: Drug degradation assessed as new spectra with MW of 202 Da formation at 40 uM measured after incubation of 8-month old compound with [15N]-labelled cNTnC (1 to 90 residues)-cTnI (136 to 163 residues) C35S mutant chimeric protein (unknown origin) by 2D 1H, 15N HSQC NMR spectroscopy analysis. In kind it is ADME.
A short description of data set [5]: Inhibition of actomyosin ATPase activity in bovine cardiac myofibrils assessed as reduction in inorganic phosphate release using ATP as substrate preincubated for 30 mins in presence of pCa 4.5 followed by substrate addition by malachite green based assay. More on the design: species or system Bos taurus.
The nature of data set [6]: Binding affinity to calcium saturated His-tagged cNTnC (1 to 90 residues)- cTnI (136 to 163 residues) A-Cys chimeric protein harboring C35S/C84S double mutant (unknown origin) assessed as dissociation constant by flourescence spectroscopy analysis. More on the design: species or system Homo sapiens.
The species named for data set [7] is Bos taurus. The experiment in a line: Inhibition of actomyosin ATPase activity in bovine cardiac myofibrils assessed as reduction in inorganic phosphate release using ATP as substrate preincubated for 30 mins in presence of pCa 9 followed by substrate addition by malachite green based assay.
A short description of data set [8]: Stability of the compound in NMR buffer at 50 uM in the absence of DTT measured after 40 hrs at 30 degC by 1D H-NMR analysis. The class given is physicochemical.
A short description of data set [9]: Aqueous solubility of the compound by fluorescence spectroscopy analysis. The class given is physicochemical.
Data set [10] in a line: Covalent binding affinity to [15N]-labelled cNTnC (1 to 90 residues)- cTnI (136 to 163 residues) C35S mutant chimeric protein (unknown origin) expressed in Escherichia coli BL21 (DE3) assessed as dissociation constant by 2D 1H, 15N HSQC NMR spectroscopy analysis. On the set-up: species or system Homo sapiens.
The species entered for data set [11] is Homo sapiens. The experiment in a line: Binding affinity to [15N]-labelled cNTnC (1 to 90 residues)- cTnI (136 to 163 residues) A-Cys chimeric protein harboring C35S/C84S double mutant (unknown origin) assessed as NMR fast exchange by 2D 1H, 15N HSQC NMR spectroscopy analysis.
Data set [12] can be described thus: Aqueous solubility of the compound by 1D H-NMR spectroscopy analysis. The class given is physicochemical.
Data set [13] in a line: Drug degradation assessed as new spectra with MW of 404 Da formation at 40 uM measured after incubation of 8-month old compound with [15N]-labelled cNTnC (1 to 90 residues)-cTnI (136 to 163 residues) C35S mutant chimeric protein (unknown origin) by 2D 1H, 15N HSQC NMR spectroscopy analysis. The class given is ADME.
Data set [14] is described as follows: Reactivity with dithiothreitol in NMR buffer at 50 uM measured up to 24 hrs by 1D H-NMR analysis. Conditions: time hrs <=24.
Data set [15] is filed under the species Homo sapiens. Description: Binding affinity to BME-bound [15N]-labelled cNTnC (1 to 90 residues)- cTnI (136 to 163 residues) C35S mutant chimeric protein (unknown origin) expressed in Escherichia coli BL21 (DE3) up to 60 uM in the presence of DTT by 2D 1H, 15N HSQC NMR spectroscopy analysis. To be noted: dose microM <=60.

The structures appear in SMILES notation. The source made the active and inactive calls. The calls are words filed in the database; no cut-off is given here.

On to `N#C/C(=C\c1ccc(N(c2ccccc2)c2ccccc2)cc1)C(=O)O`, for which the Kd is 56 nM in [1], 45 nM in data set [6] and under 500 nM in [10]. In the data set filed under Bos taurus [2], the inhibition result is “Active”. The outcome in the data set listed under Homo sapiens [3] and in the data set filed under Homo sapiens [11] was inactive. In addition, the Drug degradation entry in [4] and in data set [13] was “Active” throughout. Also, in data set [5], the IC50 is 11 nM. The inhibition entry in the data set filed under Bos taurus [7] is “inactive”. Further, the Stability result in [8] is on record as “Stable”. Moreover, the solubility in data set [9] and in [12] was under 50 µM each time. In addition, the result (in [14]; in the data set listed under Homo sapiens [15]) was Active.

One may read the Kd as the constant that tells how readily two partners part at equilibrium. In general, IC50 refers to the point on the concentration scale where inhibition reaches its midpoint. One may read the solubility as the concentration that dissolves in the medium under given conditions.

(Values after ChEMBL document CHEMBL4840337, “A Potent Fluorescent Reversible-Covalent Inhibitor of Cardiac Muscle Contraction” (ACS Med Chem Lett, 2021).)
